The species entered for assay [1] is Mus musculus. In words: Concentration causing regression of MMTV-v-Ras mice bearing palpable tumors. Format: functional, organism-based.
Assay [2] has as its target T1, Farnesyltransferase (Saccharomyces cerevisiae S288c, UniProt P22007+P29703).
T1 sequence (P29703 whole entry): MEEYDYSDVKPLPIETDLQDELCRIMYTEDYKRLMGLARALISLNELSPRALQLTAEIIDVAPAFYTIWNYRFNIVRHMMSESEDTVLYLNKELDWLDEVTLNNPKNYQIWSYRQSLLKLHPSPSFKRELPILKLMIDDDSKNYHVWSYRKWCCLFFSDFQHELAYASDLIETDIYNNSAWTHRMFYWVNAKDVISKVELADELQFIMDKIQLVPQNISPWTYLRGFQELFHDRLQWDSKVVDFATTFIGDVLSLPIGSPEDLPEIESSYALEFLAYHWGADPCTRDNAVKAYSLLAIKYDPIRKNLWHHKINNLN
T1 sequence (P22007 whole entry): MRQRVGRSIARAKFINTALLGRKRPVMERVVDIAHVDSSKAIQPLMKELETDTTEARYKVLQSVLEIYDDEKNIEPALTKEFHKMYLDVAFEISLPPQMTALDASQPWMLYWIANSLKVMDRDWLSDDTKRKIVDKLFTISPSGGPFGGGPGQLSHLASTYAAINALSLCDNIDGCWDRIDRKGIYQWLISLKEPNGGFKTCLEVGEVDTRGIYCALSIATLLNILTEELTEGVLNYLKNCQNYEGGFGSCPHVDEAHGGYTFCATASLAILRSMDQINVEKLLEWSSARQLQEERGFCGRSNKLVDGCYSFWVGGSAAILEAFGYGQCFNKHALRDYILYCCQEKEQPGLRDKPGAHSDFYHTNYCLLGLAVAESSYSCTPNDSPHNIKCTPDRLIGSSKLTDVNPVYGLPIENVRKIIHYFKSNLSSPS
In words: Activity against yeast Farnesyltransferase. Format: protein-complex assay.

The target in assay [3] is T2, Protein farnesyltransferase (Rattus norvegicus, UniProt Q02293+Q04631). In words: Activity against rat Farnesyltransferase. Type of assay: protein-complex assay.
Assay [4] has as its system NIH3T3. In words: Inhibition of Ras processing in v-Ras-transformed NIH 3T3 cell growth in soft agar at 50 uM. Format: functional, cell-based. Particulars: Mus musculus.
The target of assay [5] is Protein farnesyltransferase (Bos taurus, UniProt P29702+P49355). In words: Activity against bovine Farnesyltransferase. Type of assay: protein-complex assay.
Assay [6] has as its target T3, Protein farnesyltransferase (Mus musculus) (UniProt Q61239+Q8K2I1). In words: (§1) Inhibition of Ras-processing in H-Ras transformed NIH3T3 fibroblasts. Format: functional, cell-based.
Assay [7] addresses Protein farnesyltransferase (Mus musculus, UniProt Q61239+Q8K2I1). The assay is described as §1. Format: functional, cell-based.
Assay [8] addresses T4, Protein farnesyltransferase (Homo sapiens, UniProt P49354+P49356). In words: Activity against Farnesyltransferase. Type of assay: protein-complex assay.
For assay [9], the target named is Protein farnesyltransferase (Sus scrofa). In words: Activity against pig Farnesyltransferase.
Assay [10] deals with Tumor Cell line. In words: Inhibition of colony formation in soft agar of 14 human tumor cell lines. Type of assay: functional, cell-based.
The target of assay [11] is Geranylgeranyl transferase type I (Homo sapiens, UniProt P49354+P53609). In words: (§2) Activity against Geranylgeranyl transferase type I. Format: protein-complex assay.
Assay [12] deals with T2, Protein farnesyltransferase. In words: Activity against rat brain Farnesyltransferase.
Assay [13] concerns the target T3, Protein farnesyltransferase (Mus musculus). In words: Concentration disrupting H-Ras processing in human H-Ras BALB/c 3T3 cells. Type of assay: functional, cell-based.
Assay [14] addresses T4, Protein farnesyltransferase. In words: Inhibition of Ras processing in v-Ras-transformed cells. Format: functional, cell-based.
The target is the same in assay [15]. In words: Inhibitory activity against farnesyl pyrophosphate. Type of assay: protein-complex assay.
In assay [16] the test system is NIH3T3. In words: Activity against H-Ras transformed NIH3T3 fibroblasts in a clonogenic assay. Particulars: Mus musculus. Type of assay: functional, cell-based.
Assay [17] is filed under the species Mus musculus. In words: Percent increase in life span of NIH3T3 cell tumor-bearing nude mice. Type of assay: functional.
Assay [18] concerns the target T4, Protein farnesyltransferase. In words: Activity against human Farnesyltransferase. Format: protein-complex assay.
Assay [19] is described as follows: as §2.
Assay [20] concerns Mus musculus. In words: Activity against H-Ras-transformed rat-1 tumor cells implanted intraperitoneally in athymic mice. Format: functional.

Structures are written as SMILES. pIC50, pKi: −log10 of the molar value.

Regarding `CC[C@H](C)[C@@H](CO[C@@H](Cc1ccccc1)C(=O)N[C@@H](CCS(C)(=O)=O)C(=O)OC(C)C)NC[C@@H](N)CS`, the Concentration in [1] amounted to 40 mg/kg.

In the case of `CCCCC(C)/C=C(C)/C=C(\C)CC(=O)NC1=CC(O)(/C=C/C=C/C=C/C(=O)NC2=C(O)CCC2=O)C2OC2C1=O` (configuration not stated), the pIC50 (in general, −log10 of the IC50, conventionally taken in molar units) in assay [2] was 5.30.

In turn, `CSCCC(NC(=O)CN1C(=O)[C@H](N(C)C(=O)[C@H](N)CS)NC(c2ccccc2)c2ccccc21)C(=O)O` (some centres not stated) showed a pIC50 in assay [3] of 9.10.

On to `CCC(C)[C@@H](CO[C@@H](Cc1ccccc1)C(=O)N[C@@H](CCS(C)(=O)=O)C(=O)OC)NC[C@@H](N)CS` (some centres not stated), for which the values for the pIC50 in [4] and in [5] were 5.00 and 6.62, respectively.

Turning to `COC(=O)[C@H](CCSC)NC(=O)[C@@H](NC(=O)[C@@H](NC(=O)CCP(=O)(O)C/C=C(\C)CC/C=C(\C)CCC=C(C)C)C(C)C)C(C)C`, the Concentration in assay [6] is 0.1 µM.

As to `C[C@@H](NC(=O)[C@H](Cc1c[nH]c2ccccc12)NC(=O)[C@H](COCc1ccccc1)NC(=O)[C@H](Cc1ccc(OCc2ccccc2)cc1)NC(=O)[C@H](Cc1c[nH]cn1)NC(=O)OCc1ccccc1)C(N)=O`, the negative-log IC50 (pIC50) in assay [7] is 6.38.

In assay [8], `COC1=C(N)C(=O)c2nc(-c3nc(C(=O)O)c(C)c(-c4cccc(OC)c4O)c3N)ccc2C1=O` had a pIC50 of 4.68.

As to `CC(C)=CCC/C(C)=C/CC/C(C)=C/C(=O)C(F)(F)P(=O)(O)O`, the negative logarithm of the IC50 (pIC50) in assay [9] was 6.46.

In [5], `CCC(=O)O[C@H](C[C@@]1(C)[C@H](C)CCC(=O)[C@@H]1C)/C(C)=C/Cc1c(O)cc(C)c(C=O)c1O` [CYLINDROL A] had a pIC50 of 5.66.

`COC(=O)[C@H](CCSC)NC(=O)[C@H](/C=C\[C@@H](/C=C/[C@@H](N)CS)C(C)C)Cc1ccccc1`: the pIC50 in assay [10] is 4.22.

In assay [6], `CN(C(=O)[C@@H](Cc1c[nH]cn1)NC(=O)OCc1ccccc1)[C@@H](Cc1ccc(OCc2ccccc2)cc1)C(=O)NCCOCc1ccccc1` displayed a Concentration of 2.5 µM.

In the case of `CC(C)(C)[C@H](NC[C@@H](N)CS)C(=O)N1Cc2ccccc2C[C@H]1C(=O)N[C@@H](CCC(N)=O)C(=O)O`, the figures for the pIC50 in [11] and in [3] were 5.85 and 8.55, respectively.

Take `N[C@@H](CS)CNc1ccc(-c2cccc(C(=O)O)c2)cc1`: in assay [12], the pIC50 is 7.30. Further, the Concentration in assay [13] is 50 µM.

In assay [5], `O=C1C=C[C@]23Oc4ccc(O)c5c4[C@](Oc4cccc1c42)(O3)C1OC1C5=O` (some centres not stated) [PREUSSOMERIN] had a pIC50 of 5.92.

`CSCC[C@H](NC(=O)[C@H](Cc1ccccc1)NC[C@@H](NC[C@@H](N)CS)C(C)C)C(=O)O` had a pIC50 in assay [14] of 4.30.

In [6], `CC(C)=CCC/C(C)=C/CC/C(C)=C/CCP(=O)(O)CP(=O)(O)O` returned a Concentration of 1 µM. In assay [15], the pKi (commonly the Ki on a negative log10 scale, so that one unit is a factor of ten) was 6.08.

On to `O=C(CN(Cc1ccc(OCc2ccccc2)cc1)C(=O)[C@H](Cc1c[nH]cn1)NC(=O)OCc1ccccc1)NCCc1ccccc1`, for which the pIC50 is 5.36 in [16] and 6.77 in assay [8]. The Concentration in [6] amounted to 0.1 µM. Besides, the increase in lifespan (ILS) (commonly how much longer treated animals lived than controls) in assay [17] was 35%.

The compound `CCCCCCCC/C=C\CCCCCC/C(C(=O)O)=C(\C)C(=O)O` [CHAETOMELLIC ACID B] showed a pIC50 in assay [18] of 6.72.

Regarding `CC(C)=CCC/C(C)=C/CC/C(C)=C/CONC(=O)CP(=O)(O)OCOC(=O)C(C)(C)C`, in assay [8], the pIC50 is 5.58.

For the compound `CC[C@H](C)[C@H](NC[C@@H](NC[C@@H](N)CS)[C@@H](C)CC)C(=O)N[C@@H](CCO)C(=O)O`, the pIC50 in assay [19] was under 5.00; in assay [5], 7.74.

In the case of `COC(=O)[C@H](CCSC)NC(=O)[C@@H]1Cc2ccccc2CN1C(=O)[C@@H](NC[C@@H](N)CS)C(C)(C)C`, the pIC50 in assay [11] was 6.70; in [3], 7.07. In addition, in assay [20], the T/C (as a rule, the result in the treated group divided by that in the control group, in per cent) turned out to be 154%.

`CCCCCCCCCCCCCC/C(C(=O)O)=C(\C)C(=O)O` [CHAETOMELLIC ACID A] showed a pIC50 in assay [18] of 7.22.

Values taken from ChEMBL document CHEMBL1130144, “Ras farnesyltransferase: a new therapeutic target” (J Med Chem, 1997).
